Assay results as given in patent US20230000870A1, “METHODS OF TREATING CANCER IN BIOMARKER-IDENTIFIED PATIENTS WITH INHIBITORS OF CYCLIN-DEPENDENT KINASE 7 (CDK7)” (Syros Pharmaceuticals, Inc., priority 2019, published 2023).

Assays:
[1] = biological target: T1, CDK12 (aa686-1082)/Cyclin K complex (Homo sapiens, UniProt Q9NYV4); assay: CDK12 kinase inhibition assay (Caliper/LabChip EZ Reader); type: biochemical; conditions: CDK12 (aa686-1082)/Cyclin K 50 nM, ATP 2 mM, 3 hr at 27° C.
T1 construct: CDK12 (aa686-1082)/Cyclin K complex
Method in brief: (§1)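 Caliper/LabChip mobility-shift kinase assays at 27° C. CDK9/Cyclin T1 8 nM with 2 μM 5-FAM-CDK9tide, 10 mM MgCl2, 15 min; CDK12/Cyclin K 50 nM with 5-FAM-CDK9tide 2 μM, 2 mM MgCl2, 3 hr; CDK2/Cyclin E1 0.5 nM with 5-FAM-CDK7tide 2 μM, 2 mM MgCl2, 35 min; CDK7 35 min.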

[2] = system: HCC70 cells; assay: Inhibition of proliferation of HCC70 cells (CyQUANT Direct, 72 hour); type: cell-based, human; conditions: read-out: Inhibition of Proliferation of HCC70 Cells (calculated IC50)
Method in brief: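 Human triple-negative breast cancer cells grown in RPMI-1640 + 10% FBS at 37 °C, 5% CO2, treated with compounds from 4 μM to […] in 0.5 log steps. Proliferation over 72 h was read by CyQUANT Direct.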

[3] = biological target: CDK7/Cyclin H/MAT1 complex (Homo sapiens, UniProt P50613); assay: CDK7 kinase inhibition assay (Caliper/LabChip EZ Reader); type: biochemical; conditions: CDK7/Cyclin H/MAT1 6 nM, ATP 2 mM, 35 min at 27° C.
Method in brief: as §1

[4] = biological target: CDK2/Cyclin E1 complex (Homo sapiens, UniProt P24941); assay: CDK2 kinase inhibition assay (Caliper/LabChip EZ Reader); type: biochemical; conditions: CDK2/Cyclin E1 0.5 nM, ATP 2 mM, 35 min at 27° C.
Method in brief: as §1

[5] = system: A673 cells; assay: Inhibition of proliferation of A673 cells (CyQUANT, 72 hour); type: cell-based, human; conditions: read-out: Inhibition of Proliferation of A673 Cells (calculated IC50)
Method in brief: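 Human Ewing's sarcoma A673 cells in DMEM + 10% FBS + 1 mM sodium pyruvate, 37 °C, 5% CO2. Compounds in 0.5-log serial dilutions, stated range 4 μM to […], for 72 h. Anti-proliferative effect read with CyQUANT per kit directions.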

[6] = biological target: CDK9/Cyclin T1 complex (Homo sapiens, UniProt P50750); assay: CDK9 kinase inhibition assay (Caliper/LabChip EZ Reader); type: biochemical; conditions: CDK9/Cyclin T1 8 nM, ATP 2 mM, 15 min at 27° C.
Method in brief: as §1

T1 sequence (Q9NYV4 686-1082): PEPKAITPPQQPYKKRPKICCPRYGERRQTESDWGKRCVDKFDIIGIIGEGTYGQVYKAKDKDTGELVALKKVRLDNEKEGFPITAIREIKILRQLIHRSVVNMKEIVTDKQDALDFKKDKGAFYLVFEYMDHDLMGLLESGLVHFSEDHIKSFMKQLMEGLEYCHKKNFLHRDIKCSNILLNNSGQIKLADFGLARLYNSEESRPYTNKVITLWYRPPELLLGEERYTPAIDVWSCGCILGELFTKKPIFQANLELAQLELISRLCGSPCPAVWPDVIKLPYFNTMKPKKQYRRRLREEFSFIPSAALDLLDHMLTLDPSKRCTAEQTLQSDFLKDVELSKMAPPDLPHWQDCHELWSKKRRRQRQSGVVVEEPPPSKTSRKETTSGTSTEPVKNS
T1 sequence (O75909 whole entry partner, the tested form may be a part): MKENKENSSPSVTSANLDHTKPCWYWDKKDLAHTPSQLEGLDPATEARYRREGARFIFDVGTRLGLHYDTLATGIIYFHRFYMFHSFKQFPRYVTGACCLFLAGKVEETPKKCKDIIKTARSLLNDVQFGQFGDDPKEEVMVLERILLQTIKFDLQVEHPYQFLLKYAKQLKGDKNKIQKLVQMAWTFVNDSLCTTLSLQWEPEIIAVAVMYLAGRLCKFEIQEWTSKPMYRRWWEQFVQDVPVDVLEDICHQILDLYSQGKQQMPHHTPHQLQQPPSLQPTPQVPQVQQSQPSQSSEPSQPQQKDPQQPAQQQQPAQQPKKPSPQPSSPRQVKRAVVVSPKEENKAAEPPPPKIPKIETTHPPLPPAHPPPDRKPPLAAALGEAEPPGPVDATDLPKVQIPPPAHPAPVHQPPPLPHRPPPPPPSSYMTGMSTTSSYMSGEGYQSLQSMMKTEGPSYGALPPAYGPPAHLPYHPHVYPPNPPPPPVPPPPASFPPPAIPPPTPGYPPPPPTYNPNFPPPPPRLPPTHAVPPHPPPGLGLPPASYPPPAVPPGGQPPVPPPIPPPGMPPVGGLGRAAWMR
Sequence of CDK7/Cyclin H/MAT1 complex (P50613 whole entry): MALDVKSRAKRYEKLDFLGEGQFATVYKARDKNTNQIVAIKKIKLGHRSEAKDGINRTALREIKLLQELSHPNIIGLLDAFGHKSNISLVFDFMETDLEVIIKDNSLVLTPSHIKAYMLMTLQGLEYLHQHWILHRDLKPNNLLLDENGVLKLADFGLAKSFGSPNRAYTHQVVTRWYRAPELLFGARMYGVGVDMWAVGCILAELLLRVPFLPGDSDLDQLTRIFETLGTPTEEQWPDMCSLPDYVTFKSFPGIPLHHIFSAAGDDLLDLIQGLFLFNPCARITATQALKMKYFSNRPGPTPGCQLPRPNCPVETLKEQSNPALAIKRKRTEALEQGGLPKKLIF
Sequence of CDK7/Cyclin H/MAT1 complex (P51946 whole entry partner): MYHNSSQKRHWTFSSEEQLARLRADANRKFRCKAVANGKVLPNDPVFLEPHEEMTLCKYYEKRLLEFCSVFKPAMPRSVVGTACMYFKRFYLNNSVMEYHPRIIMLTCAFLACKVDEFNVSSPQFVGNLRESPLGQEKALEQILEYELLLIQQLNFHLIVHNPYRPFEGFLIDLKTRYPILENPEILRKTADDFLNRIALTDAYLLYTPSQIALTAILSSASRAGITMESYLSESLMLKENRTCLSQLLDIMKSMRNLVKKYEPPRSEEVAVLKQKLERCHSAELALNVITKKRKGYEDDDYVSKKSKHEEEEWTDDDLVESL
Sequence of CDK7/Cyclin H/MAT1 complex (P51948 whole entry partner): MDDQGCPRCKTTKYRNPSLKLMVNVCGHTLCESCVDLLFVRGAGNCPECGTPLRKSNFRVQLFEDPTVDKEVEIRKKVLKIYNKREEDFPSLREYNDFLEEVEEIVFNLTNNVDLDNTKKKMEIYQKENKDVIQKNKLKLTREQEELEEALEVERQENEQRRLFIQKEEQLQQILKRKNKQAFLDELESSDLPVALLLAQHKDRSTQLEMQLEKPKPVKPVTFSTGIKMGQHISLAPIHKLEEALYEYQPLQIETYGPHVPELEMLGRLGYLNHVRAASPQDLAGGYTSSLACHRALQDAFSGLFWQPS
Sequence of CDK9/Cyclin T1 complex (P50750 whole entry): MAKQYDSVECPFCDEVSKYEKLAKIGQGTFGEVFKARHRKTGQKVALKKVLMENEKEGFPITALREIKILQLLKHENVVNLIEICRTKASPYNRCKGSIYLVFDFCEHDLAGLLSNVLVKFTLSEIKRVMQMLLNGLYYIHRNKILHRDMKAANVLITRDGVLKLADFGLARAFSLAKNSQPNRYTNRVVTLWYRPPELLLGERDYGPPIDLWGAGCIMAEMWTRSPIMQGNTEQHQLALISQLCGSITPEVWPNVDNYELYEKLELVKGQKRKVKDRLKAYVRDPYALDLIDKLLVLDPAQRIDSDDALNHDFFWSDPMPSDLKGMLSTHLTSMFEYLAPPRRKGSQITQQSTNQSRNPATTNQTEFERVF
Sequence of CDK9/Cyclin T1 complex (O60563 whole entry partner): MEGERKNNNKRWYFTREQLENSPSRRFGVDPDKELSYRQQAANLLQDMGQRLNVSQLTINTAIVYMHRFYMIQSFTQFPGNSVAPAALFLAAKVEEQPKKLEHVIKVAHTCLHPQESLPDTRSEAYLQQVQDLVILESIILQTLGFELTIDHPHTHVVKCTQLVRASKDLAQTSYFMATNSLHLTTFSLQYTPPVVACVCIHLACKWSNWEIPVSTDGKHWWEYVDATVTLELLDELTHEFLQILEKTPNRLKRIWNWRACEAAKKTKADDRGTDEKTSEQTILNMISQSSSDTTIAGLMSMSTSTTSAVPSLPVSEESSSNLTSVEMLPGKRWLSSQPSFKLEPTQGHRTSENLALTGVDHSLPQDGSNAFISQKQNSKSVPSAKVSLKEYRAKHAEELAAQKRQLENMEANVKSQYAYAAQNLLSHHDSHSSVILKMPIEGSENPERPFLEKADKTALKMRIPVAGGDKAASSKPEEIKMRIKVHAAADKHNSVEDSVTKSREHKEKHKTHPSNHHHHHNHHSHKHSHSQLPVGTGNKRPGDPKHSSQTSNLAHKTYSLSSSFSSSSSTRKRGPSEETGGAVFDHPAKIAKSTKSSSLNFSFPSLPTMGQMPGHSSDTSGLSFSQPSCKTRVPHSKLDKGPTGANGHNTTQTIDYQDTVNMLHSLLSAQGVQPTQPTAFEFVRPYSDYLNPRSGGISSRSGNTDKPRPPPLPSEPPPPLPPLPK

| Structure (SMILES) | IC50 [1] | IC50 [2] | IC50 [3] | IC50 [4] | IC50 [5] | IC50 [6] |
| --- | --- | --- | --- | --- | --- | --- |
| FC(F)(F)c1cnc(NC2CCCNC2)nc1-c1n[nH]c2ccccc12 (stereo not shown) [Compound 103] | 20 to 200 nM | < 100 nM | < 20 nM | 200 to 5000 nM | 20 to 200 nM | 200 to 5000 nM |
| Clc1cnc(NC2CCCNC2)nc1-c1cnn2ccccc12 (stereo not shown) [Compound 104] | 20 to 200 nM | 100 to 1000 nM | 20 to 200 nM | 200 to 5000 nM | 20 to 200 nM | 200 to 5000 nM |
| Fc1cccc2c(-c3nc(NC4CCCNC4)ncc3Cl)c[nH]c12 (stereo not shown) [Compound 107] | 20 to 200 nM | 100 to 1000 nM | 20 to 200 nM | 200 to 5000 nM | < 20 nM | 200 to 5000 nM |
| Fc1ccc2[nH]cc(-c3nc(NC4CCCNC4)ncc3Cl)c2c1 (stereo not shown) [Compound 109] | 20 to 200 nM | 100 to 1000 nM | < 20 nM | 200 to 5000 nM | 20 to 200 nM | 200 to 5000 nM |
| Cc1cccc2c(-c3nc(NC4CCCNC4)ncc3Cl)c[nH]c12 (stereo not shown) [Compound 112] | 20 to 200 nM | < 100 nM | < 20 nM | 200 to 5000 nM | < 20 nM | 200 to 5000 nM |
| Clc1cnc(NC2CCCNC2)nc1-c1c[nH]c2ncccc12 (stereo not shown) [Compound 118] | 20 to 200 nM | < 100 nM | < 20 nM | 200 to 5000 nM | 20 to 200 nM | 200 to 5000 nM |
| CC(C)c1cnc(NC2CCCNC2)nc1-c1c[nH]c2ccccc12 (stereo not shown) [Compound 139] | ≥ 5000 nM | 1000 to 5000 nM | 20 to 200 nM | ≥ 5000 nM | 200 to 5000 nM | ≥ 5000 nM |
| CS(=O)(=O)c1cccc2c(-c3nc(NC4CCCNC4)ncc3C(F)(F)F)c[nH]c12 (stereo not shown) [Compound 141] | 200 to 5000 nM | < 100 nM | < 20 nM | 200 to 5000 nM | < 20 nM | 200 to 5000 nM |
| CCc1cnc(NC2CCCNC2)nc1-c1c[nH]c2c(F)cccc12 (stereo not shown) [Compound 144] | 200 to 5000 nM | 100 to 1000 nM | < 20 nM | 200 to 5000 nM | 20 to 200 nM | 200 to 5000 nM |
| O=C1CCC(Nc2ncc(Cl)c(-c3c[nH]c4ccccc34)n2)CN1 (stereo not shown) [Compound 159] | 200 to 5000 nM | 1000 to 5000 nM | 20 to 200 nM | 20 to 200 nM | 200 to 5000 nM | 200 to 5000 nM |
| N#Cc1ccc2c(-c3nc(NC4CCCNC4)ncc3Cl)c[nH]c2c1 (stereo not shown) [Compound 161] | 200 to 5000 nM | < 100 nM | < 20 nM | 200 to 5000 nM | < 20 nM | 200 to 5000 nM |
| FC(F)(F)c1cnc(NC2CCCNC2)nc1-c1c[nH]c2cnc(Cl)cc12 (stereo not shown) [Compound 165] | 200 to 5000 nM | 100 to 1000 nM | < 20 nM | 200 to 5000 nM | 20 to 200 nM | 200 to 5000 nM |
| Fc1cnc2[nH]cc(-c3nc(NC4CCCNC4)ncc3C(F)(F)F)c2c1 (stereo not shown) [Compound 166] | 200 to 5000 nM | < 100 nM | < 20 nM | 20 to 200 nM | < 20 nM | 200 to 5000 nM |
| FC(F)(F)c1cnc(NC2CCCNC2)nc1-c1c[nH]c2c(-c3cn[nH]c3)cccc12 (stereo not shown) [Compound 170] | 20 to 200 nM | < 100 nM | < 20 nM | 200 to 5000 nM | < 20 nM | 200 to 5000 nM |
| CNC(=O)c1cccc2c(-c3nc(N[C@H]4CCCNC4)ncc3C(F)(F)F)c[nH]c12 [Compound 173] | 200 to 5000 nM | 100 to 1000 nM | < 20 nM | 200 to 5000 nM | 20 to 200 nM | 200 to 5000 nM |
| Cc1[nH]ncc1-c1cccc2c(-c3nc(N[C@@H]4CCCNC4)ncc3C(F)(F)F)c[nH]c12 [Compound 175] | 200 to 5000 nM | 1000 to 5000 nM | < 20 nM | 200 to 5000 nM | < 20 nM | 20 to 200 nM |
| CN1CCN(c2cccc3c(-c4nc(NC5CCCNC5)ncc4C(F)(F)F)c[nH]c23)C1=O (stereo not shown) [Compound 176] | 200 to 5000 nM | 100 to 1000 nM | < 20 nM | 200 to 5000 nM | < 20 nM | 200 to 5000 nM |
| FC(F)(F)c1cnc(NC2CCCNC2)nc1-c1c[nH]c2c(-c3ccnnc3)cccc12 (stereo not shown) [Compound 180] | 20 to 200 nM | < 100 nM | < 20 nM | 20 to 200 nM | < 20 nM | 200 to 5000 nM |

| Structure (SMILES) | IC50 [1] | IC50 [2] | IC50 [3] | IC50 [4] | IC50 [5] | IC50 [6] |
| --- | --- | --- | --- | --- | --- | --- |
| OC1CCC(c2cccc3c(-c4nc(NC5CCCNC5)ncc4C(F)(F)F)c[nH]c23)CC1 (stereo not shown) [Compound 185] | 200 to 5000 nM | < 100 nM | < 20 nM | 20 to 200 nM | < 20 nM | 200 to 5000 nM |
| Cn1cc(-c2nc(NC3CCCNC3)ncc2C(F)(F)F)c2ccc(C#N)nc21 (stereo not shown) [Compound 273] |  | 1000 to 5000 nM |  |  | 200 to 5000 nM |  |
| CCCc1cnc(N[C@H]2CCCNC2)nc1-c1c[nH]c2c(S(C)(=O)=O)c(C#N)ccc12 [Compound 367] | ≥ 5000 nM | 1000 to 5000 nM | 20 to 200 nM | ≥ 5000 nM |  | ≥ 5000 nM |
| N#Cc1ccc2c(-c3nc(NC4CNCC(F)C4)ncc3C(F)(F)F)c[nH]c2c1 (stereo not shown) [Compound 368] | 200 to 5000 nM | 1000 to 5000 nM | 20 to 200 nM | ≥ 5000 nM |  | ≥ 5000 nM |
| CCN1CC(Nc2ncc(C(F)(F)F)c(-c3c[nH]c4cc(S(C)(=O)=O)ccc34)n2)CC(C)(C)C1 (stereo not shown) [Compound 369] | ≥ 5000 nM | 100 to 1000 nM | 20 to 200 nM | ≥ 5000 nM |  | ≥ 5000 nM |
| N#Cc1ccc2c(-c3nc(N[C@@H]4CNC[C@H](O)C4)ncc3C(F)(F)F)c[nH]c2c1 [Compound 370] | 200 to 5000 nM | 100 to 1000 nM | 20 to 200 nM | ≥ 5000 nM |  | ≥ 5000 nM |
| CN(C)S(=O)(=O)c1cccc2c(-c3nc(NC4CCCNC4)ncc3C(F)(F)F)c[nH]c12 (stereo not shown) [Compound 371] | 200 to 5000 nM | < 100 nM | < 20 nM | 200 to 5000 nM |  | 200 to 5000 nM |
| CC1CCNCC1Nc1ncc(C(F)(F)F)c(-c2c[nH]c3ccccc23)n1 (stereo not shown) [Compound 372] | 200 to 5000 nM | 100 to 1000 nM | 20 to 200 nM | 200 to 5000 nM |  | 200 to 5000 nM |
| CC1CCNCC1Nc1ncc(C(F)(F)F)c(-c2c[nH]c3ccccc23)n1 (stereo not shown) [Compound 373] | ≥ 5000 nM | 1000 to 5000 nM | 20 to 200 nM | ≥ 5000 nM |  | ≥ 5000 nM |
| FC(F)Sc1ccc2c(-c3nc(NC4CCCNC4)ncc3C(F)(F)F)c[nH]c2c1 (stereo not shown) [Compound 374] | 20 to 200 nM | < 100 nM | < 20 nM | 200 to 5000 nM |  | 200 to 5000 nM |
| O=S(=O)(c1ccc2c(-c3nc(NC4CCCNC4)ncc3C(F)(F)F)c[nH]c2c1)C(F)F (stereo not shown) [Compound 375] | 200 to 5000 nM | 100 to 1000 nM | < 20 nM | 200 to 5000 nM |  | 200 to 5000 nM |
| CC1(C)CNC[C@@H](Nc2ncc(C(F)(F)F)c(-c3c[nH]c4cc(S(C)(=O)=O)ccc34)n2)C1 [Compound 376] | 200 to 5000 nM | 100 to 1000 nM | 20 to 200 nM | 200 to 5000 nM |  | ≥ 5000 nM |
| N#Cc1ccc2c(-c3nc(N[C@@H]4CCC5(CCC5)NC4)ncc3C(F)(F)F)c[nH]c2c1 [Compound 377] | 200 to 5000 nM | 100 to 1000 nM | < 20 nM | ≥ 5000 nM |  | 200 to 5000 nM |
| N#Cc1ccc2c(-c3nc(N[C@H]4CCC5(CCC5)NC4)ncc3C(F)(F)F)c[nH]c2c1 [Compound 378] | ≥ 5000 nM | 1000 to 5000 nM | 20 to 200 nM | ≥ 5000 nM |  | ≥ 5000 nM |
| CCP(=O)(CC)c1ccc2c(-c3nc(NC4CCCNC4)ncc3C(F)(F)F)c[nH]c2c1 (stereo not shown) [Compound 379] | ≥ 5000 nM | 1000 to 5000 nM | 20 to 200 nM | ≥ 5000 nM |  | ≥ 5000 nM |
| [O-][S+](c1ccc2c(-c3nc(NC4CCCNC4)ncc3C(F)(F)F)c[nH]c2c1)C(F)F (stereo not shown) [Compound 380] | 200 to 5000 nM | < 100 nM | < 20 nM | 200 to 5000 nM |  | 200 to 5000 nM |
| CS(=O)(=O)c1ccc2c(-c3nc(NC4CCCN(C5CC5)C4)ncc3C(F)(F)F)c[nH]c2c1 (stereo not shown) [Compound 381] | 200 to 5000 nM | 1000 to 5000 nM | 20 to 200 nM | ≥ 5000 nM |  | ≥ 5000 nM |
| CC1(C)CNCC(Nc2ncc(Cl)c(-c3c[nH]c4c(S(C)(=O)=O)c(C#N)ccc34)n2)C1 (stereo not shown) [Compound 382] | 200 to 5000 nM | < 100 nM | < 20 nM | 200 to 5000 nM |  | 200 to 5000 nM |
